Data: patent publication US20140171433A1, “MULTIPLE MYELOMA TREATMENT” (YM Biosciences Australia Pty Ltd, priority 2011, published 2014)
Entries after “also recorded” stand apart in the source; their conditions may differ. Like-named read-outs stand apart in the source and are kept apart here.

How the values were obtained:
Cyclin D2 = settings: two HMCL, ref [22]; cited from earlier work
Ras/MAPK = settings: cited from earlier work; for IL-6 induced activation of Ras/MAPK: refs [20, 22]
p-ERK1/2 (pT202/pY204) = assay: IL-6 and IGF-1 induced p-ERK, intracellular FACS, U266; format: cell-based, human; settings: 2 μM CYT387 cotreatment, 15 minutes
Procedure: (§1) Activation of the JAK/STAT, PI3K/AKT and Ras/MAPK pathways was investigated using intracellular flow cytometry to measure the phosphorylation of STAT3 at tyrosine 705 (p-STAT3), AKT at serine 473 (p-AKT) and ERK1/2 at threonine 202 and tyrosine 204 (p-ERK). HMCL were stimulated alone with 10 ng/ml IL-6±[…] IGF-1 or stimulated in CC with HS5 stromal cells or primary BMSC with or without CYT387 treatment. For CC HS5 and primary BMSC were seeded into a 24 well plate at 2×10^5 cells/ml and allowed to establish for 4 hours, after which HMCL prestained with CD38 or CD138 FITC (BD) were added. MM cells were stimulated alone (10 ng/ml IL-6 or 5 ng/ml IL-6 and 100 ng/ml IGF-1), or in CC (direct CC with stroma or transwell (TW) CC with stroma) with or without either 60 minutes of CYT387 pretreatment or 15 minutes CYT387 co-treatment. After stimulation±treatment, MM cells were harvested and fixed with 2% paraformaldehyde for 10-30 minutes, washed then permeabilised with methanol overnight. Methanol was washed off and the cells were resuspended in p-STAT3 PE (BD), p-AKT PE (BD) or p-ERK (BD) and stained for 45-60 minutes at room temperature. Unbound antibody was washed off and the cells resuspended in 2% FBS PBS and acquired by FACS.

[1] = test system: CD38+CD45− primary MM cells; assay: Apoptosis (Apo 2.7) of ex-vivo primary patient MM cells, single agent and combination; format: cell-based, human; settings: 24 hours, Calcusyn
From the text: Primary MM samples were obtained from Bone Marrow Aspirates from relapsed and refractory MM patients following written informed consent with approval from the Alfred Hospital Research and Ethics Committee and isolated and treated as previously described. Briefly, bone marrow mononuclear cells (BMMC) were isolated with Ficoll-Paque Plus (Amersham Biosciences), washed in PBS and red blood cells were lysed with NH4Cl solution (8.29 g/L ammonium chloride, 0.037 g/L EDTA, 1 g/L potassium bicarbonate). Cells were then washed again in PBS and quantitated by haemocytometer. BMMC samples were then cultured in complete RPMI-1640 media (as above for HMCL) for 24 hours. Subsequently the BMMC were plated at 5×10^5 cells/ml and were treated with CYT387 (5-50 μM) alone or (dependant on cell numbers) in combination with bortezoniib (5-40 nM) or melphalan (50-200 μM) for 24 and/or 48 hours. Drug-induced MM specific cell apoptosis was then compared to untreated and vehicle controls by staining for CD45 FITC (BD), CD38 PerCP-Cy5.5 (BD) and Apo 2.7 PE (Immunotech) to determine apoptosis in CD45−CD38+ MM cells. Samples were subsequently analyzed by FACS. Primary bone marrow stromal cells (BMSC) were also collected from patient BMMC, cells that adhered to the flask after an initial 24 hour culture were cultured with continued selection for adherent cells over several passages. […]

p-STAT3 (pY705) [2] = assay: IL-6 induced STAT3 phosphorylation in HMCL (intracellular FACS, western blot); format: cell-based, human
Procedure: HMCL were treated with CYT387 (1 or 2 μM) for 60 minutes and then stimulated with 10 ng/ml IL-6 for 15 minutes. Protein lysates of CYT387 treated and untreated HMCL were made with RIPA Buffer (50 mM Tris.HCl pH 7.4, 150 mM NaCl, 1 mM PMSF, 1 mM EDTA, 5 μg/ml Aprotinin, 5 μg/ml Leupeptin, 1% Triton X-100, 1% Sodium deoxycholate and 0.1% SDS). Briefly cells were incubated in RIPA buffer on ice for 30-60 minutes before being centrifuged at 16,100×g for 20 minutes at 4° C. and the supernatant collected. Protein concentration was quantified using DC Protein Assay (Bio-Rad) as per manufacturer's instructions. Subsequently, 100 μg of each protein lysate was separated by 10% SDS-PAGE and blotted onto nitrocellulose (Hybond ECL, Amersham) using the Bio-Rad semi-dry transfer system. Membranes were blocked with 5% skim milk powder 0.1% Tween-20/PBS for 60 minutes then incubated with mouse monoclonal antiphospho-STAT3 (pY705, Santa Cruz), mouse monoclonal anti-STAT3 (Santa Cruz) or mouse monoclonal anti-a-tubulin (Sigma-Aldrich) for 1-2 hours at room temperature or overnight at 4° C. The blots were washed three times for 15 minutes in 0.1% Tween-20/PBS, then incubated with secondary HRP lagged antibody (swine anti-rabbit Ig HRP (Dako) or rabbit anti-mouse Ig HRP (Dako)) for 1-2 hours at room temperature before washing as above. […]

NCI-H929 [3] = assay: Annexin-V/Propidium Iodide FACS apoptosis; format: cell-based; settings: Homo sapiens, read-out: reduction in viable cells
Procedure: (§2) The viability and proliferation of CYT387 treated HMCL and untreated/vehicle controls were determined using various methods as described previously. Proliferation was measured first using Celltiter 96 AQeous one solution cell proliferation assay MTS reagent (Promega) on a panel of 8 HMCL. Cells were cultured at 2.0×10^5 cell/ml in 100 μl fresh media in 96 well plates for 24, 48 and 72 hours with CYT387 (0.1-5 μM). 20 μl of MTS reagent was added for the final 4 hours of treatment and the plates were read at 490 nm using a Fluostar Optima plate reader (BMG Labtech). The viable cell numbers of a panel of 5 HMCL that were treated with CYT387 with and without IL-6 co-treatment was also measured by trypan blue staining and haemocytometer count. The HMCL NCI-H929, OCI-MY1 and U266 were then selected for further analysis. Apoptosis of CYT387 treated cells was assessed by FACS with Annexin-V and propidium iodide (PI) staining. HMCLs were treated for 24 or 72 hours with 1 or 5 μM CYT387 then harvested and washed in Annexin Buffer (0.01 HEPES, 0.14 M NaCl, 2.5 mM CaCl2, pH 7.4) and stained with Annexin-V FITC (Biosource) made up in Annexin Buffer for 30 minutes at room temperature. Unbound antibody was then washed off with Atmexin Buffer and cells were resuspended in Annexin Buffer with 62.5 ng/mi PI (Sigma-Aldrich) and analyzed by FACS.

[4] = test system: HMCL (LP-1, NCI-H929, OPM2, RPMI-8226, ANBL-6, OCI-MY1, U266 and XG-1); assay: MTS cell proliferation assay on a panel of 8 HMCL; format: cell-based, human
Procedure: as §2

p-STAT3 (pY705) [5] = assay: STAT3 phosphorylation in HMCL in coculture with bone marrow stromal cells (HS5 or primary BMSC); format: cell-based, human; settings: 15 minutes coculture with BMSC (with or without contact), co-treatment with 2 μM CYT387
Procedure: as §1

U266 = assay: Viable cell number by haemocytometer; format: cell-based; settings: Homo sapiens, U-266; U266, 1 μM, after 72 hours; read-out: inhibition of cell proliferation
Procedure: as §2

NCI-H929 [6] = assay: Viable cell number by haemocytometer; format: cell-based; settings: Homo sapiens; NCI-H929, 1 μM, after 72 hours; read-out: inhibition of cell proliferation
Procedure: as §2

OCI-MY1 = assay: Viable cell number by haemocytometer; format: cell-based; settings: Homo sapiens; OCI-MY1, 0.5 μM, after 72 hours; read-out: inhibition of cell proliferation
Procedure: as §2

[7] = test system: NCI-H929, OCI-MY1 and U266; assay: PI FACS dose effect and synergy (Calcusyn) in HMCL; format: cell-based, human; settings: 24 and 48 hours
Procedure: For the synergy experiments HMCL were treated with CYT387 in combination with bortezomib or melphalan for 24 and 48 hours before being harvested and resuspended in FACS Buffer (0.5% HI FBS in PBS) supplemented with 62.5 ng/ml PI (Sigma-Aldrich). Cells were immediately analysed by FACS. The proportion of PI positive cells was quantitated by subtracting the background death of untreated cells. Single drug treated cells were compared to combination treated cells and synergism was calculated using Calcusyn software (Biosoft).

[8] = test system: HMCL (NCI-H929, OCI-MY1 and U266); assay: Viable cell number by haemocytometer with and without IL-6; format: cell-based, human; settings: CYT387 0.5-1 μM, 10 ng/ml IL-6, 72 hours
Procedure: as §2

[9] = test system: HMCL (NCIH929, OCI-MY1 and U266); assay: Annexin-V/Propidium Iodide FACS apoptosis; format: cell-based, human; settings: Annexin-V/PI; 3 HMCL
Procedure: as §2

p-AKT (pS473) = assay: IL-6 and IGF-1 induced p-AKT, intracellular FACS, OCI-MY1; format: cell-based, human; settings: 2 μM CYT387 cotreatment, 15 minutes
Procedure: as §1

[10] = test system: HMCL (NCI-H929, OCI-MY1 and U266); assay: Cell cycle analysis by FACS (PI/RNase); format: cell-based, human
Procedure: (§3) The effect of CYT387 treatment on HMCL cell cycling was measured after 24 and 72 hours. CYT387 (1 or 5 μM) treated and untreated HMCL were harvested, washed in PBS and resuspended in 100 μl PBS. Cells were fixed with 1 ml of cold 70% ethanol while being vortexed. Tubes were stored at −20° C. until analysis. Once all samples were collected tubes were centrifuged at 500×g for 10 minutes, the supernatant was carefully removed and the cells washed in 5 ml PBS. After the final wash cells were resuspended 250-500 μl of PI/RNase staining buffer (BD) and incubated in the dark at room temperature for 15 minutes before being analyzed by FAGS.

NCI-H929 cells = assay: Cell cycle analysis by FACS (PI/RNase); format: cell-based, human; settings: after 24 and 72 hours treatment
Procedure: as §3

AKT = settings: PTEN mutated OPM2 MM cells, ref [30]; cited from earlier work
[11] = CYT387 in combination with bortezomib
[12] = CYT387 in combination with melphalan

Cc1cc(Nc2nc(N[C@@H](C)c3ncc(F)cn3)ncc2Cl)n[nH]1 [AZD1480]
Cyclin D2 (Cyclin D2): inhibited Cyclin D2
IL-6 induced activation of Ras/MAPK (Ras/MAPK): reduce IL-6 induced activation of Ras/MAPK

N#CCNC(=O)c1ccc(-c2ccnc(Nc3ccc(N4CCOCC4)cc3)n2)cc1 [CYT387, N-(cyanomethyl)-4-[2-[[4-(4-morpholinyl)phenyl]amino]-4-pyrimidinyl]-benzamide]
IL-6 and IGF-1 induced p-ERK (p-ERK1/2 (pT202/pY204)): significantly inhibited; also recorded: significant reduction
synergy with bortezomib in primary patient cells [1, 11]: synergy was also observed with bortezomib in some patients/doses
synergy with melphalan in primary patient cells [1, 12]: synergize with melphalan in ⅔ patients
phosphorylation of STAT3 in IL-6 stimulated samples (p-STAT3 (pY705) [2]; CYT387 0.5-2 μM for 1 hour, then IL-6 for 15 minutes, NCI-H929, OCI-MY1 and U266, FACS and western blotting): inhibited the phosphorylation of STAT3
Total STAT3 protein (p-STAT3 (pY705) [2]; western blot, CYT387 then IL-6 stimulation): unaffected
cytotoxicity at 5 µM (NCI-H929 [3]; NCI-H929, 5 μM CYT387, 24 hours): 21%
cytotoxicity at 5 µM (NCI-H929 [3]; NCI-H929, 5 μM CYT387, 72 hours): 52%
most sensitive HMCL to CYT387 treatment (MTS) ([4]; 72 hours): NCI-H929 and XG-1 were the most sensitive
cell proliferation response by MTS assay ([4]; CYT387 0.1-5 μM, 24, 48 and 72 hours, 8 HMCL): Six of 8 HMCL had a time and dose dependent response
amount of p-STAT3 in the HMCL (p-STAT3 (pY705) [5]): dramatically reduced the amount of p-STAT3
inhibition at 1 µM (U266): 44%
inhibition at 1 µM (NCI-H929 [6]): 50%
inhibition at 0.5 µM (OCI-MY1): 50%
apoptosis (PI+ cells), dose effect curves ([7]; CYT387 0.5-10 μM): induced apoptosis in 3 HMCL in a time and dose dependent manner
synergy with bortezomib (combination index, Calcusyn) [7, 11]: displayed synergism; also recorded: synergistic or nearly additive in 18/24 combinations
synergy with melphalan (combination index, Calcusyn) [7, 12]: displayed synergism; also recorded: Synergy is seen
proliferation of HMCL in the presence of IL-6 [8]: able to reduce the proliferation of HMCL in culture even in the presence of IL-6
proportion of apoptotic cells [9]: increased proportion of apoptotic cells was detected in all 3 HMCL
p-AKT activation after IL-6 and IGF-1 stimulation (p-AKT (pS473)): significantly reduced; also recorded: dramatic reduction
cells in the G2/M phase of the cell cycle ([10]; CYT387 1-5 μM, NCI-H929, OCI-MY1 and U266): marked accumulation of cells in the G2/M phase
polyploid population ([10]; CYT387 treated samples): additional polyploid population was found
increase in cells in G2/M compared to untreated or vehicle treated control (NCI-H929 cells): more than a two fold increase

N#C/C(=C/c1ccc(O)c(O)c1)C(=O)NCc1ccccc1 [AG490]
AKT activation (AKT): could also abrogate AKT activation
IL-6 induced Ras/MAPK activation (Ras/MAPK; in the hands of others, ref [31]): no decrease
IL-6 induced activation of Ras/MAPK (Ras/MAPK): reduce IL-6 induced activation of Ras/MAPK
